{
  "source": "paper PMC8248052",
  "about": "(Chembiochem, 2021)",
  "target": "T1, SMYD3 (Homo sapiens, UniProt Q9H7B4)",
  "T1 sequence (Q9H7B4 1-428)": "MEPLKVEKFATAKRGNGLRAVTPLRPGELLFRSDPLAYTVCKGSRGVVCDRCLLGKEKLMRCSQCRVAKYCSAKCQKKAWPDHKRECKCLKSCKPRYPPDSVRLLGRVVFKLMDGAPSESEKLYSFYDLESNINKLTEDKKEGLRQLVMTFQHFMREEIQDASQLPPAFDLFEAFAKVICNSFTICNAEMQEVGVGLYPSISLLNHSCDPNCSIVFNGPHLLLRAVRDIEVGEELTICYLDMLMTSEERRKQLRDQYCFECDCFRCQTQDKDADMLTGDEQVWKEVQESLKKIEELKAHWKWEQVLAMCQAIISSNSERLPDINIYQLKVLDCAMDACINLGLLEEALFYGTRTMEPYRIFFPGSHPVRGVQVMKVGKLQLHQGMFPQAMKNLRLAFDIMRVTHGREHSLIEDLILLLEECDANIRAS",
  "test": "LC-MS methyltransferase assay, MAP3K2 […]-274 peptide, inhibition at […]",
  "format": "biochemical",
  "conditions": "0.63 µM",
  "data": [
    {"smiles": "O=C1Cc2cc(C(=O)NC3C[C@H]4CC[C@@H](C3)N4S(=O)(=O)CC3CCN(CCCC(F)(F)F)CC3)c(Cl)cc2N1", "note": "(stereo partly shown) [EPZ031686]", "values": [
      {"measurement": "Inhibition [%]", "result": "52.8±1.7"}
    ]}
  ]
}
